Laboratory results from PMC12040169 (PLOS Biology, 2025).

Test: in vitro
Conditions: human, hela cells, % viability

| SMILES | viability at 28.5 h, 10 µM |
| --- | --- |
| CCC(=O)N1CCCc2cc(C(O)CN3CCN(c4cccc(OC)c4)CC3)ccc21 (stereo not shown) [CBK286476] | 114% |
| COc1ccc(C(=O)NNC(=O)c2cccc(O)c2)cc1 [CBK262594] | 118% |
| CCn1cc(C(=O)O)c(=O)c2cc(F)c(N3CCN(C(=S)Nc4ccc(F)c(Cl)c4)CC3)cc21 [CBK267921] | 97.5% |
| COc1ccc(CNC(=O)N(CCc2ccccc2)CC(C)(C)CN)cc1 [CBK000463C] | 119% |
| Cc1nc(N)nc(N[C@@H]2CCOC[C@H]2OCCN(C)C)c1Cl [CBK307024] | 88.7% |
| Cc1nccn1CCNC(=O)Cn1cnc2ccccc21 [CBK281983] | 102% |
| O=c1oc(-c2cccnc2)nn1Cc1ccccc1F [CBK283774] | 87.1% |
| O=C(CSc1ncnc2c1oc1ccccc12)NC1CCCC1 [CBK287788] | 99.4% |
| O=C(Nc1ccccc1C(=O)O)c1cc(S(=O)(=O)Nc2ccc(F)cc2)ccc1Cl [CBK263248] | 120% |
| COc1cc2c(cc1OC)CN(Cc1csc(C)n1)CC2 [CBK126443] | 93.4% |
| CNc1snc(N2CCOCC2)c1C#N [CBK011453] | 93% |
| CC(O)c1ccc(-c2ccc(CNCCCN3CCOCC3)o2)cc1 (stereo not shown) [CBK278178C] | 95.4% |
| Cc1nc(C(=O)N2CCC3(CCCCOc4ccccc4C(=O)NCCNC3=O)CC2)co1 [CBK292089] | 103% |
| Cc1cc(SCC(C)C)n2ncnc2n1 [CBK261808] | 112% |
| Cc1noc(C)c1S(=O)(=O)Nc1csc(C(F)(F)F)c1-c1ccccc1 [CBK001237] | 91% |
| CN(C)c1cccc(-c2cncc(NCc3ccco3)n2)c1 [CBK065555] | 106% |
| Cc1ccccc1-c1cncc(C2CCN(C(=O)Cc3c[nH]c4ccccc34)CC2)n1 [CBK286148] | 79.4% |
| Cc1ccc(NC(=O)/C=C/C(=O)O)c(NC(=O)c2ccccc2)c1 [CBK286563] | 97.3% |
| Cc1c(C(=O)NC(Cc2ccsc2)c2cccnc2)cnn1C (stereo not shown) [CBK285115] | 110% |
| Cc1nnc(SCc2cc(=O)[nH]c(N3CCN(c4ccccc4F)CC3)n2)s1 [CBK270017] | 97.8% |
| O=C(CN1CCOCC1)N1CCN(C(=O)c2ccc(Cl)cc2Cl)CC1 [CBK028992] | 97.7% |

| SMILES | viability at 28.5 h, 10 µM |
| --- | --- |
| COc1ccccc1N1CCN(C(=O)NCCCN2CCCC2=O)CC1 [CBK155612] | 99.5% |
| CCCCNC(=S)N[C@H]1CC[C@@]2(C3=CC=CC4C=CC=CC34)CCN(C)[C@H]2C1 (stereo partly shown) [CBK003610C] | 101% |
| Oc1ccccc1/C=N/Nc1nnc(-c2ccccc2)c(-c2ccccc2)n1 [CBK262003] | 93% |
| Cc1ccn2c(NS(=O)(=O)c3ccc(CCC(=O)O)cc3)c(-c3cccs3)nc2c1 [CBK297480] | 110% |
| c1ccc2c(COc3nccnc3N3CCNCC3)ccnc2c1 [CBK014866] | 90.3% |
| Cc1cccc(C(=O)N2CCN(Cc3nc4ccccc4[nH]3)CC2)c1 [CBK304399] | 90.2% |
| Cc1nn(C)c(C)c1CN(C)C(=O)CCCC(=O)O [CBK286879] | 82.8% |
| CCCN(C(C)C(=O)N(C)C)S(=O)(=O)c1ccc(Cl)cc1 (stereo not shown) [CBK016123] | 96.8% |
| CN(C)CC(=O)N1Cc2cccc3c2c(cn3S(=O)(=O)c2ccccc2)C1 [CBK155548T] | 94.5% |
| CC(=O)C12CCCCC1CC1C3CC(C)C4(O)CC(O)CCC4(C)C3CCC12C (stereo not shown) [CBK261479] | 91.8% |
| c1cc(-c2nccnc2NCC2CCCCC2)ccn1 [CBK037627] | 99.4% |
| O=S(=O)(Nc1nnc(C(F)(F)F)s1)c1csc2ccccc12 [CBK062009] | 95.9% |
| COc1ccc(C(C)C)cc1-c1cnc(N)c(N2CCOCC2)n1 [CBK063384] | 92.1% |
| Cc1oc(C(=O)O)cc1CSCc1cc(C(=O)O)oc1C [CBK263275] | 101% |
| CCOC(=O)C1CCN(CCOc2ccc3ccccc3c2)CC1 [CBK270128C] | 95.4% |
| CCn1nc(C(C)C)cc1C(=O)NCCN1CCC(C)CC1 [CBK282107] | 85.6% |
| Oc1ccc(-n2ncc(-c3cccc(C(F)(F)F)c3)n2)cc1 [CBK112677] | 99.9% |
| O=C(CSc1ncccc1C(=O)O)Nc1nnc(Cc2ccccc2)s1 [CBK299835] | 97.1% |
| COc1cc(CNC(=O)N(CCC#N)C2CCCCC2)cc(OC)c1OC [CBK156359] | 98.1% |
| COc1ccc(C(=O)CSc2nnc3n(N)cnn23)cc1 [CBK263201] | 94.6% |
| CC(C)(CN1C(=O)c2ccccc2C1=O)C(O)C(=O)O (stereo not shown) [CBK286582] | 82.3% |

| SMILES | viability at 28.5 h, 10 µM |
| --- | --- |
| Oc1ccc(/C=N/n2c(S)nnc2C(F)(F)F)cc1 [CBK265206] | 98.6% |
| CCCCN(C)c1c(CC)nc2ccc(C(=O)N3CCNC(=O)C3)cn12 [CBK145460] | 87.9% |
| Cc1ccc(-n2c(=O)[nH]c3c(C(N)=O)nc(-c4ccccc4)nc32)cc1C [CBK287718] | 84.7% |
| CCn1c(C)nc2cc(NC(=O)c3oc(C)nc3C)ccc21 [CBK281881] | 106% |
| COc1ccc(OCCN2CCC3(CC2)CN(C(=O)CO)c2ccccc23)cc1 [CBK131512] | 103% |
| Cc1cc(N2C(=O)CC(N3CCC(C(=O)N4CCOCC4)CC3)C2=O)no1 (stereo not shown) [CBK269035] | 92.6% |
| CCN(CC)Cc1c(O)ccc2c(C#N)c(C)n(-c3ccccc3)c12 [CBK261527C] | 94.9% |
| CCCN1CCC(N2CCN(CCO)CC2)CC1 [CBK261920] | 79.9% |
| CCNC(=O)N1CC2(CCN(CC3COc4ccccc4O3)CC2)c2ccccc21 (stereo not shown) [CBK143944] | 102% |
| CC(C)(CNC(=O)c1ccc(=O)n(CC(=O)N2CCc3ccccc32)c1)c1ccccc1F [CBK286020] | 127% |
| COc1ccc([N+](=O)[O-])cc1NC(=O)c1ccc(-c2cc3ccccc3oc2=O)cc1 [CBK267325] | 79.1% |
| CN(C)CCN(C)C(=O)c1ccc(-c2ccc3c(c2)OCO3)nc1N(C)C [CBK106072] | 92.7% |
| CN(C)c1ccc(-c2nnnn2[C@H]2CO[C@H]3[C@@H]2OC[C@H]3O)cc1 [CBK289481] | 76.7% |
| CCOc1ccc(CNc2ccc(C3c4ccsc4CCN3C(=O)COC)cc2)cc1 (stereo not shown) [CBK286453] | 85.3% |
| COc1ccc(CNc2oc(-c3ccccc3)nc2S(=O)(=O)c2ccccc2)cc1 [CBK267669] | 105% |
| CCN1CCN(CCCOc2ccccc2Cc2ccccc2)CC1 [CBK267379G] | 95% |
| Cc1nnsc1[S+]([O-])c1ccc(Br)cc1 (stereo not shown) [CBK012927] | 96.1% |
| O=C(O)CCNS(=O)(=O)c1cccc(Cl)c1 [CBK267328] | 106% |
| COc1ccc(C)cc1S(=O)(=O)Nc1cc(N2CCN(C(C)C)CC2)c2occc2c1 [CBK073625C] | 92% |
| Cc1nn(C)c(Cl)c1S(=O)(=O)Nc1nnc(C(F)(F)F)s1 [CBK062003] | 92% |

Same assay, conditions: human, hela cells, % viability, bulk resorufin, single well

| SMILES | viability at 28.5 h, 10 µM |
| --- | --- |
| Cc1ccc(-c2oncc2C(=O)N2CCC(C#N)(c3ccccc3)CC2)cc1 [CBK149179] | 95.7% |
| O=C1NC(=O)C(CCc2ccncc2)(Cc2ccc3c(c2)OCO3)C(=O)N1CCc1ccccc1 (stereo not shown) [CBK266307] | 105% |
